From patent US20160339187A1, “DEVICES AND METHODS FOR CONTROLLED DRUG DELIVERY OF WET AEROSOLS” (THE RESEARCH FOUNDATION FOR THE STATE UNIVERSITY OF NEW YORK, priority 2014, published 2016)

Columns and labels:
[1] = 15 normal subjects, Aeroneb nebulizer with Idehaler; cited from earlier work
[2] = Gamma camera deposition in patients inhaling aerosol during tidal breathing from AeroTech II nebulizers; type: in vivo, human; settings: group of patients, AeroTech II type nebulizers

| SMILES | oropharyngeal activity (average) [1] [%] | upper airway deposition as a percentage of total deposition [2] [%] |
| --- | --- | --- |
| NCC[C@H](O)C(=O)N[C@@H]1C[C@H](N)[C@@H](O[C@H]2O[C@H](CN)[C@@H](O)[C@H](O)[C@H]2O)[C@H](O)[C@H]1O[C@H]1O[C@H](CO)[C@@H](O)[C@H](N)[C@H]1O [amikacin] | 29.4±7.4 |  |
| N=C(N)c1ccc(OCCCCCOc2ccc(C(=N)N)cc2)cc1 [pentamidine] |  | ≤ 5 |
